row,melting point,Compound
1,84 to 85 °C,FC(F)(F)c1ccc(-c2nocc2CCl)cc1
2,224 to 226 °C,CC(=O)Nc1cccc2c(-c3ccccc3)c([N+](=O)[O-])oc12
3,120 to 123 °C,COC(=O)[C@H](Cc1ccc([N+](=O)[O-])cc1)NC(=O)c1c(C)cccc1Cl
4,47 to 48 °C,COC(=O)CN(C)c1cccc(Br)n1
5,127 to 128 °C,CCOC(=O)c1c(CSc2ccccc2)n(C)c2cc(Br)c(O)c(CN(C)C)c12
6,266 to 267 °C,O=S1(=O)CCN2C=CC=C(c3ccc(Oc4ccc(F)cc4)cc3)C2=N1
7,94 to 95 °C,OCc1coc(/C=C/c2ccccc2)n1
8,166 °C,O=C(O)CCC(=NO)c1ccc(-c2ccc(Cl)c(Cl)c2)cc1
9,253 to 255 °C,CC12CCC(C(=O)O)=CC1=CCC1C2CCC2(C)C(C(=O)N(C(=O)NC3CCCCC3)C3CCCCC3)CCC12 (stereo unspecified)
10,109 to 113 °C,CCCC(O)c1ccc(C(=O)O)cc1 (stereo unspecified)
11,177 to 178 °C,CCC(CC)c1ccc(C(=O)OC)c2nc(Oc3c(C)cc(Cl)cc3Cl)n(C)c12
12,74 to 75 °C,CCOC(=O)C1(CBr)C=CC=CC1S(=O)(=O)NC(C)(C)C (stereo unspecified)
13,118 °C,O=[N+]([O-])c1ccc(C=Cc2ccc(OCCCCCCO)cc2)cc1
14,45 °C,CC(C)(C)COc1ccc(N)cc1Br
15,156 to 158 °C,CNS(=O)(=O)CCc1ccc2[nH]cc(C3CCN(C)CC3)c2c1
16,53 to 57 °C,CCC(C)C(NC(=O)N1CCCCCC1)C(=O)NC(Cc1ccc(OCc2ccccc2)cc1)C(=O)OC(C)(C)C (stereo unspecified)
17,139 to 140 °C,Cc1oc(-c2ccco2)nc1COc1ccc(C=O)cn1
18,136 to 141 °C,COC(=O)c1ccc(-c2cccc([N+](=O)[O-])c2)cc1
19,98 to 100 °C,O=[N+]([O-])c1cc(Cl)ccc1NCCO
20,125 to 127 °C,Cc1ccc2oc(N(C=O)[C@@H](Cc3ccccn3)c3ncc(-c4ccc(N5CCOCC5)cc4)n3C)cc2c1
21,65.4 to 66.3 °C,COc1ccc2ccc(-c3ccccc3)cc2c1
22,168 to 170 °C,COC(=O)C1=Cc2cc(-c3ccc(Cl)cc3)ccc2S(=O)(=O)CC1
23,53 to 55 °C,CC(=O)c1cc2c(s1)C(C)(C)CCC2(C)C

# Second part, the compound before the results:
row,Compound,melting point
1,COC(=O)c1ccc2c(c1)OC(C)(C)C(=O)N2C(C)C,62 to 63 °C
2,NC(=O)CCC(O)c1ccccc1 (stereo unspecified),74 to 75 °C
3,C=Cc1cc([C@@H](C)NC(=O)C=Cc2ccc(C(C)(C)C)cc2)cc(F)c1NS(C)(=O)=O,127 to 129 °C
4,O=c1oc(-c2ccc3c(c2)OCCO3)cc(O)c1SCc1ccccc1,192 to 193 °C
5,CNC(=O)/C(=N/OC)c1ccccc1COc1ccccc1C,109 to 112 °C
6,O=C(O)c1cnn(-c2ccc(Cl)cc2)c1C1CC1,186 to 187 °C
7,CC(C)(OCc1cc2cc(C(F)(F)F)ccc2n1S(=O)(=O)c1ccc2c(c1)OCO2)C(=O)O,130 to 132 °C
8,CC(C)c1cccc(C(C)C)c1NC(=O)NCC1(Nc2ccc(I)cc2)CCCC1,176 °C
9,Cc1cccc(NC(=O)NCC(=O)N(c2ccccc2)c2ccccc2CC(=O)NC(C)(C)C)c1,216 °C
10,CN1CCN(S(=O)(=O)CCCO)CC1,90 to 93 °C
11,CCOCCc1c(-c2ccc(OC)cc2)nc(N)n2ncnc12,176 to 177 °C
12,CC[C@H](C)[C@H](Nc1nc(OC)ns1)C(=O)N1CCC[C@H]1C(=O)OC,129 to 130 °C
13,Oc1ccccc1-c1ccc(Cl)nn1,188 °C
14,Cc1nn(-c2ccccn2)c2ncc(C(=O)NCc3ccccc3)c(O)c12,> 300 °C
15,CCOC(=O)Cc1nc2cc(C)ccc2o1,68 to 69 °C
16,CCCN(CCC)S(=O)(=O)c1cc(-c2csc(=Nc3cc(Cl)c(OC)cc3OC)n2C)ccc1Cl,173 to 175 °C
17,Cc1nn(C2CCOC2)c(N)c1C#N (stereo unspecified),134 to 135 °C
18,NS(=O)(=O)c1ccc(-n2nc(C(F)(F)F)cc2-c2ccc(-c3cscn3)c(F)c2)cc1F,196 to 198 °C
19,CCOCCS(=O)(=O)c1c(Cl)nc(Cl)nc1Cl,133 to 134 °C
20,Cc1ccc(-n2cc(C)cc2-c2ccc(S(N)(=O)=O)cc2)cc1,144 to 147 °C
21,CC(C)C(=O)N1CCC(c2nc3cc(-c4ccc(-n5cnnn5)cc4F)ccc3o2)CC1,190 to 194 °C
22,CCCc1cc2c(c3c1[nH]c1ccc(OC)cc13)C(=O)N(CCN(C)C)C2=O,207 to 208 °C
23,CC(C)NS(=O)(=O)c1ccc(-c2ccc3nnn(Cc4ccc5ncccc5c4)c3n2)cc1,154 to 156 °C
24,CC(=C1SC(=O)NC1=O)c1cccc(OCCCOc2c(-c3ccc(F)cc3)n(C)c3ccccc3c2=O)c1,168 to 170 °C

row,Compound,melting point
1,O=C(OCc1ccccc1)[C@@H]1CCCN1C(=O)CNC1Cc2ccccc2C1,96 to 98 °C
2,Cc1cncc(C(=O)OC(C)c2nc3c(c(=O)n(C)c(=O)n3C)n2C)c1 (stereo unspecified),110 °C
3,O=c1[nH]c(=S)c2[nH]cnc2n1-c1ccccc1,> 290 °C
4,O=C(NCc1ccccc1)c1oc(=O)c2ncccc2c1-c1ccccc1,188 to 189 °C
5,O=C(O)c1ccc(CNC(=O)C2Cc3ccccc3N2S(=O)(=O)c2ccc(-c3cccc(C(F)(F)F)c3)cc2)c(Cl)c1 (stereo unspecified),110 to 120 °C
6,Cc1cc(F)ccc1C(O)(Cc1nnnn1C)c1ccc(F)cc1C,186 to 188 °C
7,CCOC(=O)/C=C/c1cn(CC)nc1OCc1ccc(OCc2nc(-c3ccco3)oc2C)c(OC)c1,149 to 150 °C
8,COCCOc1ccc2[nH]c(=O)n(C3CCCCC3)c2c1,182 °C
9,CCCCCCCCCCCCCCCCCNC(=O)OCCSCCOC(=O)N(Cc1ccccn1)C(C)=O,62 to 63 °C
10,Cc1cccc(N2CCOC2=O)c1COc1cccn2c(C=O)c(C)nc12,242 to 244 °C
11,COC(=O)c1c(Br)cc(Br)cc1NC(=O)NCc1ccccc1,> 280 °C
12,CCOC(=O)C(CC(=O)c1ccc(OC)cc1)(NC(C)=O)C(=O)OCC,120 to 122 °C
13,COc1ccc(Nc2cc3c(cc2Nc2ccccc2)C(=O)NC3=O)cc1,266 to 267 °C
14,COc1ccc(F)cc1C(C)(C)CC(O)(Cc1nc2cc(-c3ccccc3)ccc2o1)C(F)(F)F (stereo unspecified),103 to 104 °C
15,Cn1c(C#N)ccc1-c1ccc2c(c1)C1(CCCCC1)C(=S)N2,269 to 272 °C
16,COc1cc(COc2nn(C)cc2/C=C\c2cscn2)ccc1OCc1nc(-c2ccco2)oc1C,97 to 98 °C
17,CCCN(CCCCc1c[nH]c2ccc(F)cc12)C1COc2c(F)ccc(C(=O)NC)c2C1 (stereo unspecified),110 °C
18,CS(=O)(=O)c1ccc(C(CC2CCCC2)C(=O)O)cc1F (stereo unspecified),115 to 117 °C
19,O=C(O)c1cn(O)c2ccc3[nH]c(=O)sc3c2c1=O,> 300 °C
20,COC(=S)c1cccc2nc(C)n(Cc3ccc(-c4ccccc4-c4nc(=O)o[nH]4)cc3)c12,231 to 232 °C
21,O=C(CN1CCN(c2ccccc2F)CC1)Nc1ccc2c(c1NC(=O)c1ccccc1)C(=O)c1ccccc1C2=O,228 to 229 °C
22,COc1cc2ncnc(N3CCN(C(=S)Nc4cc(C)cs4)CC3)c2cc1OC,214 to 216 °C
23,OCC#Cc1cccnc1,99 to 100 °C
24,O[C@@H](CNCC1CCN(CCC(F)(F)F)CC1)COc1ccc(Br)c2[nH]c3ccccc3c12,79 °C

# From a melting point compilation (Tetko et al.; mined from patent text by program, amines drawn as free bases though some values may be those of a salt)
